Measured values reported in ChEMBL document CHEMBL5543144, “Discovery of a Novel Potent Tetrazole Antifungal Candidate with High Selectivity and Broad Spectrum” (J Med Chem, 2024).
≈ marks a conversion by molar mass, not a printed value. Calls of active or inactive are those of the source. No cut-off for these calls is given here.

Legend:
[1] = test system: Pichia kudriavzevii; experiment: Antifungal activity against Candida krusei 4946 assessed as inhibition of fungal growth incubated for 24 hrs by CLSI protocol based microbroth dilution method; assay type: functional
[2] = test system: Candida tropicalis; experiment: Antifungal activity against Candida tropicalis 2718 assessed as inhibition of fungal growth incubated for 24 hrs by CLSI protocol based microbroth dilution method; assay type: functional
[3] = test system: Nakaseomyces glabratus; experiment: Antifungal activity against Candida glabrata 537 assessed as inhibition of fungal growth incubated for 48 hrs by CLSI protocol based microbroth dilution method; assay type: functional
[4] = test system: Candida albicans; experiment: Antifungal activity against Candida albicans SC5314 assessed as inhibition of fungal growth incubated for 24 hrs by CLSI protocol based microbroth dilution method; assay type: functional
[5] = test system: Cryptococcus neoformans; experiment: Antifungal activity against Cryptococcus neoformans H99 assessed as inhibition of fungal growth incubated for 72 hrs by CLSI protocol based microbroth dilution method; assay type: functional
[6] = test system: Aspergillus fumigatus; experiment: Antifungal activity against Aspergillus fumigatus 7544 assessed as inhibition of fungal growth incubated for 48 hrs by CLSI protocol based microbroth dilution method; assay type: functional
[7] = test system: Candida parapsilosis; experiment: Antifungal activity against Candida parapsilosis 22019 assessed as inhibition of fungal growth incubated for 24 hrs by CLSI protocol based microbroth dilution method; assay type: functional; details: Lodderomyces parapsilosis
[8] = test system: [Candida] auris; experiment: Antifungal activity against fluconazole resistant Candida auris 888 assessed as inhibition of fungal growth incubated for 48 hrs by CLSI protocol based microbroth dilution method; assay type: functional; details: Candidozyma auris
[9] = test system: [Candida] auris; experiment: Antifungal activity against fluconazole resistant Candida auris BS12372 assessed as inhibition of fungal growth incubated for 48 hrs by CLSI protocol based microbroth dilution method; assay type: functional; details: Candidozyma auris
[10] = test system: [Candida] auris; experiment: Antifungal activity against fluconazole resistant Candida auris 791 assessed as inhibition of fungal growth incubated for 48 hrs by CLSI protocol based microbroth dilution method; assay type: functional; details: Candidozyma auris
[11] = test system: [Candida] auris; experiment: Antifungal activity against fluconazole resistant Candida auris 789 assessed as inhibition of fungal growth incubated for 48 hrs by CLSI protocol based microbroth dilution method; assay type: functional; details: Candidozyma auris
[12] = test system: Cryptococcus neoformans; experiment: Antifungal activity against Cryptococcus neoformans H99 assessed as inhibition of fungal growth at 0.125 ug/ml incubated for 48 hrs by plate reader analysis; assay type: functional, organism-based; details: dose 0.125 µg/ml
[13] = test system: Candida albicans; experiment: Antifungal activity against Candida albicans SC5314 assessed as inhibition of fungal growth at 0.0156 ug/ml incubated for 24 hrs by plate reader analysis; assay type: functional, organism-based; details: dose 0.0156 µg/ml
[14] = test system: [Candida] auris; experiment: Antifungal activity against fluconazole resistant Candida auris D12 assessed as inhibition of fungal growth incubated for 48 hrs by CLSI protocol based microbroth dilution method; assay type: functional; details: Candidozyma auris
[15] = test system: [Candida] auris; experiment: Antifungal activity against fluconazole resistant Candida auris 887 assessed as inhibition of fungal growth incubated for 48 hrs by CLSI protocol based microbroth dilution method; assay type: functional; details: Candidozyma auris

SMILES	MIC50 [1]	MIC50 [2]	MIC50 [3]	MIC50 [4]	MIC50 [5]	MIC50 [6]	MIC50 [7]	MIC50 [8]	MIC50 [9]	MIC50 [10]	MIC50 [11]	Activity [12]	Activity [13]	MIC50 [14]	MIC50 [15]
C[C@@H](n1ccc2cc(-c3ccccc3)ccc2c1=O)[C@](O)(Cn1cncn1)c1ccc(F)cc1F	1 µg/mL (≈ 2.12 µM)	0.016 µg/mL (≈ 0.0339 µM)	0.063 µg/mL (≈ 0.133 µM)	< 0.008 µg/mL	0.5 µg/mL (≈ 1.06 µM)	8 µg/mL (≈ 16.9 µM)	0.063 µg/mL (≈ 0.133 µM)								
Cc1ccc2c(=O)n([C@H](C)[C@](O)(Cn3cncn3)c3ccc(F)cc3F)ccc2c1	0.125 µg/mL (≈ 0.305 µM)	< 0.008 µg/mL	< 0.008 µg/mL	< 0.008 µg/mL	< 0.008 µg/mL	0.5 µg/mL (≈ 1.22 µM)	< 0.008 µg/mL								
C[C@@H](n1ccc2cc(F)ccc2c1=O)[C@](O)(Cn1cnnn1)c1ccc(F)cc1F	1 µg/mL (≈ 2.41 µM)	< 0.008 µg/mL	0.063 µg/mL (≈ 0.152 µM)	< 0.008 µg/mL	0.016 µg/mL (≈ 0.0385 µM)	4 µg/mL (≈ 9.63 µM)	0.063 µg/mL (≈ 0.152 µM)								
C[C@@H](n1ncc2cc(Cl)ccc2c1=O)[C@](O)(Cn1cncn1)c1ccc(F)cc1F	0.125 µg/mL (≈ 0.289 µM)	< 0.008 µg/mL	< 0.008 µg/mL	< 0.008 µg/mL	< 0.008 µg/mL	0.25 µg/mL (≈ 0.579 µM)	< 0.008 µg/mL	1 µg/mL (≈ 2.32 µM)	0.5 µg/mL (≈ 1.16 µM)	1 µg/mL (≈ 2.32 µM)	2 µg/mL (≈ 4.63 µM)	Active	Active	0.5 µg/mL (≈ 1.16 µM)	1 µg/mL (≈ 2.32 µM)
C[C@@H](n1cnc2cc(F)ccc2c1=O)[C@](O)(Cn1cnnn1)c1ccc(F)cc1F	> 4 µg/mL	0.25 µg/mL (≈ 0.6 µM)	0.25 µg/mL (≈ 0.6 µM)	< 0.008 µg/mL	4 µg/mL (≈ 9.61 µM)	16 µg/mL (≈ 38.4 µM)	0.5 µg/mL (≈ 1.2 µM)								
CC[C@@H]([C@H](C)O)n1ncn(-c2ccc(N3CCN(c4ccc(OC[C@@H]5CO[C@@](Cn6cncn6)(c6ccc(F)cc6F)C5)cc4)CC3)cc2)c1=O [POSACONAZOLE]	0.5 µg/mL (≈ 0.713 µM)	< 0.008 µg/mL	0.5 µg/mL (≈ 0.713 µM)	0.016 µg/mL (≈ 0.0228 µM)	0.063 µg/mL (≈ 0.0899 µM)	0.25 µg/mL (≈ 0.357 µM)	0.25 µg/mL (≈ 0.357 µM)	8 µg/mL (≈ 11.4 µM)	1 µg/mL (≈ 1.43 µM)	2 µg/mL (≈ 2.85 µM)	16 µg/mL (≈ 22.8 µM)			0.5 µg/mL (≈ 0.713 µM)	16 µg/mL (≈ 22.8 µM)
COc1ccc2c(=O)n([C@H](C)[C@](O)(Cn3cncn3)c3ccc(F)cc3F)ccc2c1	0.125 µg/mL (≈ 0.293 µM)	< 0.008 µg/mL	< 0.008 µg/mL	< 0.008 µg/mL	< 0.008 µg/mL	1 µg/mL (≈ 2.35 µM)	< 0.008 µg/mL								
C[C@@H](n1ccc2cc(Cl)ccc2c1=O)[C@](O)(Cn1cncn1)c1cc(F)ccc1F	0.063 µg/mL (≈ 0.146 µM)	< 0.008 µg/mL	< 0.008 µg/mL	< 0.008 µg/mL	< 0.008 µg/mL	0.25 µg/mL (≈ 0.58 µM)	< 0.008 µg/mL								
C[C@@H](n1ncc2cn(-c3ccc(F)c(F)c3)nc2c1=O)[C@](O)(Cn1cncn1)c1ccc(F)cc1F	> 64 µg/mL	0.25 µg/mL (≈ 0.501 µM)	1 µg/mL (≈ 2 µM)	0.5 µg/mL (≈ 1 µM)	> 64 µg/mL	> 64 µg/mL	1 µg/mL (≈ 2 µM)								

Second part, led by results:

MIC50 [1]	MIC50 [2]	MIC50 [3]	MIC50 [4]	MIC50 [5]	MIC50 [6]	MIC50 [7]	SMILES	MIC50 [8]	MIC50 [9]	MIC50 [10]	MIC50 [11]	Activity [12]	Activity [13]	MIC50 [14]	MIC50 [15]
16 µg/mL (≈ 30.1 µM)	0.5 µg/mL (≈ 0.941 µM)	0.5 µg/mL (≈ 0.941 µM)	0.25 µg/mL (≈ 0.47 µM)	1 µg/mL (≈ 1.88 µM)	> 64 µg/mL	0.5 µg/mL (≈ 0.941 µM)	C[C@@H](n1ncc2cn(-c3ccc(C(F)(F)F)cc3)nc2c1=O)[C@](O)(Cn1cncn1)c1ccc(F)cc1F								
0.063 µg/mL (≈ 0.132 µM)	< 0.008 µg/mL	0.016 µg/mL (≈ 0.0336 µM)	< 0.008 µg/mL	< 0.008 µg/mL	1 µg/mL (≈ 2.1 µM)	< 0.008 µg/mL	C[C@@H](n1ncc2cc(Br)ccc2c1=O)[C@](O)(Cn1cncn1)c1ccc(F)cc1F								
0.063 µg/mL (≈ 0.131 µM)	< 0.008 µg/mL	< 0.008 µg/mL	< 0.008 µg/mL	< 0.008 µg/mL	1 µg/mL (≈ 2.08 µM)	< 0.008 µg/mL	C[C@@H](n1ccc2cc(OC(F)(F)F)ccc2c1=O)[C@](O)(Cn1cncn1)c1ccc(F)cc1F								
> 4 µg/mL	< 0.008 µg/mL	< 0.008 µg/mL	< 0.008 µg/mL	4 µg/mL (≈ 8.58 µM)	16 µg/mL (≈ 34.3 µM)	0.125 µg/mL (≈ 0.268 µM)	C[C@@H](n1cnc2cc(C(F)(F)F)ccc2c1=O)[C@](O)(Cn1cnnn1)c1ccc(F)cc1F								
> 64 µg/mL	0.25 µg/mL (≈ 0.47 µM)	0.5 µg/mL (≈ 0.939 µM)	0.125 µg/mL (≈ 0.235 µM)	> 64 µg/mL	> 64 µg/mL	0.25 µg/mL (≈ 0.47 µM)	C[C@@H](n1ncc2cn(-c3ccc(Cl)c(Cl)c3)nc2c1=O)[C@](O)(Cn1cncn1)c1ccc(F)cc1F								
> 64 µg/mL	0.5 µg/mL (≈ 1.08 µM)	1 µg/mL (≈ 2.16 µM)	0.5 µg/mL (≈ 1.08 µM)	> 64 µg/mL	> 64 µg/mL	1 µg/mL (≈ 2.16 µM)	C[C@@H](n1ncc2cn(-c3ccccc3)nc2c1=O)[C@](O)(Cn1cncn1)c1ccc(F)cc1F								
